Molecular target: T1, human CaSR (Homo sapiens, UniProt P41180)
T1 sequence (P41180 20-1078): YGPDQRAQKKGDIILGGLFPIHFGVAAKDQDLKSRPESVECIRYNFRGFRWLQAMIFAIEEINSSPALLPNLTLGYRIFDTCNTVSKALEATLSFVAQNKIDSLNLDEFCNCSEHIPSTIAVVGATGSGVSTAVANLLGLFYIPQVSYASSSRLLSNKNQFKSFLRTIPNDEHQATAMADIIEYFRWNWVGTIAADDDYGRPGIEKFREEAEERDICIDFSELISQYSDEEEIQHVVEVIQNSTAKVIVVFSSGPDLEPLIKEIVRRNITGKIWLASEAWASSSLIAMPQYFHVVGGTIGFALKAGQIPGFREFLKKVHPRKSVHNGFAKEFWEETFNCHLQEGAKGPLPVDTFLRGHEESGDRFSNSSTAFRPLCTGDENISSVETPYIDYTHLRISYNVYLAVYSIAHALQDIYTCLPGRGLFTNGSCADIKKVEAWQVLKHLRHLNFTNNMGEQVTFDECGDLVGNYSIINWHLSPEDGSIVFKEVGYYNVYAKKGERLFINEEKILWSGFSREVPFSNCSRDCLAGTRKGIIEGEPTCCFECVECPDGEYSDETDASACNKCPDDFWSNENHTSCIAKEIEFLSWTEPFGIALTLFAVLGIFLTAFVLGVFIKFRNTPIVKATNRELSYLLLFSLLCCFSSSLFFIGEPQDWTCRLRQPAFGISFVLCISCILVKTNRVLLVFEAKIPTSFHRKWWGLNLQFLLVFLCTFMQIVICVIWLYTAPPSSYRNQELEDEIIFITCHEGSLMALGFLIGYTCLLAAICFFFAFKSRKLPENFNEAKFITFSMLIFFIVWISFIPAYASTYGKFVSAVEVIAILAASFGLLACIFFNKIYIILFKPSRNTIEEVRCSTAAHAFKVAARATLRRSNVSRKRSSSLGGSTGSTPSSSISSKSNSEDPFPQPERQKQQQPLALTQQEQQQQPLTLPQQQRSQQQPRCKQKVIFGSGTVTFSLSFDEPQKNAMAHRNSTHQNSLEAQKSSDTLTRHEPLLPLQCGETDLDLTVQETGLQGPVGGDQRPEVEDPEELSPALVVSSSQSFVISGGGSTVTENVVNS
Assay: CaSR FLIPR assay (calcilytic activity)
Format: cell-based
Parameters: expressed in transfected cells
Conditions: HEK293 cells stably expressing human recombinant CaSR; 1 mM CaCl2 agonist; Tables 1-24; read-out: FLIPR ASSAY IC50
Method: Procedures for CaSR FLIPR Assay
Calcilytic activity of the compound is measured in HEK293 cells stably expressing human recombinant CaSR (HEK-CaSR) using a FLIPR^TETRA device (Molecular Devices, Sunnyvale, Calif.) according to the manufacturer's directions. […] On the day of the assay, one vial of FLIPR Calcium 4 Assay Kit reagent Component A was equilibrated to room temperature. The content of the Component A vial was diluted by adding 10 ml dilution buffer (2×loading dye). The sample was mixed by vortexing (1-2 minutes) until the contents of the vial dissolved. The Component A vial mixture was diluted with 10 ml dilution buffer. Media was aspirated from the cells and 80 μl of loading buffer was added to each well. Plates were incubated for 1 hour at 37° C. and then placed at room temperature for 10 minutes. A two-stage method of generating 10-point serial dilutions was used. Compound was serially diluted in 100% DMSO (10 point, 3-fold dilution of each compound from 2 mM in 100% DMSO). 3 μl of serially diluted compound was transferred into a second assay microplate that contained 97 μl of TETRA dilution buffer (20 mM HEPES pH7.4, 1×HBSS without Ca and Mg, 0.4 mM CaCl2, 0.4 mM MgSO4, 0.5 mM MgCl2) to create the intermediate dilution plate. After reading the base line, the compounds in 0.5% DMSO in dilution buffer were added to their respective wells as 20 μl aliquots at 6×the final drug concentration. The fluorescence signals were then read. Subsequently, 20 μl of 3.6 mM of CaCl2 agonist (1 mM final concentration) was added to each well. For background, 20 μl of TETRA dilution buffer was added instead. The protocol consisted of a pre-addition read of 10 frames (10×1 frame/sec), a post 1st addition read of 100 frames (60×1 frame/sec, 40×1 frame/3 sec), pause 3 min, a post 2nd addition read of 100 frames (60×1 frame/sec, 40×1 frame/3 sec) on a FLIPR^TETRA Plate Reader.

| Structure (SMILES) | IC50 |
| --- | --- |
| C[C@@H](OC[C@H](O)CNC(C)(C)Cc1ccc(Cl)c(F)c1)c1cccc2c1O[C@@H]1[C@@H](C(=O)O)[C@H]21 [Example 1-2] | 148 nM |
| Cc1ccc([C@@H](C)OC[C@H](O)CNC2(Cc3ccc4ccccc4c3)CC2)c2c1O[C@H]1[C@H](C(=O)O)[C@@H]21 [Example 9-7] | 187 nM |
| C[C@@H](OC[C@H](O)CNC(C)(C)Cc1ccc2ccccc2c1)c1cccc2c1[C@H]1[C@@H](O2)[C@@H]1C(=O)O [Example 7-1] | 80 nM |
| Cc1ccc([C@@H](C)OC[C@H](O)CNC(C)(C)Cc2ccc3ccccc3c2)c2c1O[C@@H]1[C@@H](C(=O)O)[C@H]21 [Example 8-1] | 14 nM |
| Cc1ccc([C@@H](C)OC[C@H](O)CNC(C)(C)Cc2ccc(F)c(F)c2)c2c1O[C@@H]1[C@@H](C(=O)O)[C@H]21 [Example 8-19] | 138 nM |
| C[C@@H](OC[C@H](O)CNC(C)(C)Cc1ccc(Cl)c(F)c1)c1cccc2c1[C@@H]1[C@H](O2)[C@H]1C(=O)O [Example 5-2] | 32 nM |
| Cc1ccc([C@@H](C)OC[C@H](O)CNC(C)(C)Cc2ccc(Cl)c(F)c2)c2c1O[C@@H]1[C@@H](C(=O)O)[C@H]21 [Example 8-2] | 58.5 nM |
| COc1ccc(CC(C)(C)NC[C@@H](O)CO[C@H](C)c2ccc(C)c3c2[C@H]2[C@@H](O3)[C@@H]2C(=O)O)cc1F [Example 9-5] | 224 nM |
| Cc1ccc([C@@H](C)OC[C@H](O)CNC(C)(C)Cc2ccc3c(c2)CCS3)c2c1O[C@@H]1[C@@H](C(=O)O)[C@H]21 [Example 8-26] | 21 nM |
| Cc1ccc([C@@H](C)OC[C@H](O)CNC(C)(C)CCCc2ccccc2)c2c1O[C@@H]1[C@@H](C(=O)O)[C@H]21 [Example 8-16] | 29 nM |
| C[C@@H](OC[C@H](O)CNC(C)(C)CC1Cc2ccccc2C1)c1cccc2c1O[C@@H]1[C@@H](C(=O)O)[C@H]21 [Example 1-3] | 40 nM |
| Cc1ccc(CC(C)(C)NC[C@@H](O)CO[C@H](C)c2ccc(C)c3c2[C@@H]2[C@H](O3)[C@H]2C(=O)O)cc1F [Example 8-4] | 21 nM |
| Cc1ccc([C@@H](C)OC[C@H](O)CNC(C)(C)Cc2ccc3c(c2)CCC3)c2c1O[C@H]1[C@H](C(=O)O)[C@@H]21 [Example 9-6] | 53 nM |
| COc1ccc(CC(C)(C)NC[C@@H](O)CO[C@H](C)c2cccc3c2[C@@H]2[C@H](O3)[C@H]2C(=O)O)c(Cl)c1 [Example 5-16] | 38 nM |
| C[C@@H](OC[C@H](O)CNC(C)(C)CCCc1ccccc1)c1cccc2c1O[C@@H]1[C@@H](C(=O)O)[C@H]21 [Example 1-14] | 38 nM |
| C[C@@H](OC[C@H](O)CNC(C)(C)Cc1ccc2c(c1)CCC2)c1cccc2c1O[C@@H]1[C@@H](C(=O)O)[C@H]21 [Example 1-7] | 110 nM |
| Cc1ccc([C@@H](C)OC[C@H](O)CNC(C)(C)Cc2ccc3ccccc3c2)c2c1O[C@H]1[C@H](C(=O)O)[C@@H]21 [Example 9-1] | 22 nM |
| Cc1ccc([C@@H](C)OC[C@H](O)CNC(C)(C)CCSc2ccc(F)cc2)c2c1O[C@@H]1[C@@H](C(=O)O)[C@H]21 [Example 8-31] | 65 nM |
| Cc1ccc(CC(C)(C)NC[C@@H](O)CO[C@H](C)c2cccc3c2O[C@@H]2[C@@H](C(=O)O)[C@H]32)c(F)c1 [Example 1-11] | 140 nM |
| C[C@@H](OC[C@H](O)CNC(C)(C)CCSc1ccccc1)c1cccc2c1O[C@@H]1[C@@H](C(=O)O)[C@H]21 [Example 1-20] | 330 nM |
| C[C@@H](OC[C@H](O)CNC(C)(C)COCc1ccccc1)c1cccc2c1O[C@H]1[C@H](C(=O)O)[C@@H]21 [Example 2-5] | 4220 nM |
| C[C@@H](OC[C@H](O)CNC(C)(C)CC1Cc2ccccc2C1)c1cccc2c1O[C@H]1[C@H](C(=O)O)[C@@H]21 [Example 2-3] | 307 nM |
| Cc1ccc([C@@H](C)OC[C@H](O)CNC2(Cc3ccc4ccccc4c3)CCC2)c2c1O[C@H]1[C@H](C(=O)O)[C@@H]21 [Example 9-8] | > 10000 nM |
| Cc1ccc([C@@H](C)OC[C@H](O)CN2CCCC2(C)Cc2ccccc2)c2c1O[C@@H]1[C@@H](C(=O)O)[C@H]21 (stereo partly drawn) [Example 8-18] | 1330 nM |
| CSc1ccc(CC(C)(C)NC[C@@H](O)CO[C@H](C)c2cccc3c2[C@@H]2[C@H](O3)[C@H]2C(=O)O)cc1 [Example 5-13] | 72 nM |
| C[C@@H](OC[C@H](O)CNC(C)(C)Cc1ccc([S+](C)[O-])c(F)c1)c1cccc2c1O[C@@H]1[C@@H](C(=O)O)[C@H]21 (stereo partly drawn) [Example 1-18] | > 10000 nM |
| Cc1ccc([C@@H](C)OC[C@H](O)CNC(C)(C)CC2Cc3ccccc3C2)c2c1O[C@@H]1[C@@H](C(=O)O)[C@H]21 [Example 8-3] | 20 nM |
| Cc1ccc([C@@H](C)OC[C@H](O)CNC(C)(C)Cc2cccc3ccccc23)c2c1O[C@@H]1[C@@H](C(=O)O)[C@H]21 [Example 8-9] | 119 nM |

Second part, the compound after the results:

| IC50 | Structure (SMILES) |
| --- | --- |
| 17 nM | CSc1ccc(CC(C)(C)NC[C@@H](O)CO[C@H](C)c2c(Cl)cc(C)c3c2[C@@H]2[C@H](O3)[C@H]2C(=O)O)cc1F [Example 16-6] |
| 150 nM | C[C@@H](OC[C@H](O)CNC(C)(C)Cc1ccc2ccccc2c1)c1cccc2c1C[C@H]1[C@H](C(=O)O)[C@@H]21 [Example 14-2] |
| 36 nM | C[C@@H](OC[C@H](O)CNC(C)(C)Cc1ccc2sccc2c1)c1cccc2c1[C@@H]1[C@H](C2)[C@H]1C(=O)O [Example 13-4] |
| 42 nM | CC(OC[C@H](O)CNC(C)(C)Cc1ccc2ccccc2c1)c1cccc2c1C1C(S2)C1C(=O)O (stereo partly drawn) [Example 23-1] |
| 24 nM | COc1ccc(CC(C)(C)NC[C@@H](O)CO[C@H](C)c2c(Cl)cc(C)c3c2[C@@H]2[C@H](O3)[C@H]2C(=O)O)c(F)c1 [Example 16-5] |
| 28 nM | C[C@@H](OC[C@H](O)CNC(C)(C)Cc1ccc2ccccc2c1)c1cccc2c1[C@@H]1[C@H](C2)[C@H]1C(=O)O [Example 13-1] |
| 4900 nM | C[C@@H](OC[C@H](O)CNC(C)(C)Cc1ccc2ccccc2c1)c1cccc2c1[C@H]1[C@@H](C2)[C@@H]1C(=O)O [Example 13-6] |
| 270 nM | C[C@@H](OC[C@H](O)CNC(C)(C)Cc1ccc2ccccc2c1)c1cccc2c1C[C@@H]1[C@@H](C(=O)O)[C@H]21 [Example 14-1] |
| 130 nM | CCOC(=O)[C@@H]1[C@H]2Oc3c(C)ccc([C@@H](C)OC[C@H](O)CNC(C)(C)Cc4ccc(SC)c(F)c4)c3[C@H]21 [Example 12-1] |
| 106 nM | Cc1ccc(C(C)OC[C@H](O)CNC(C)(C)Cc2ccc3ccccc3c2)c2c1OC(C)(C)C1C(C(=O)O)C21 (stereo partly drawn) [Example 24-1] |
| 20 nM | C[C@@H](OC[C@H](O)CNC(C)(C)Cc1ccc2ccccc2c1)c1cc(Cl)cc2c1O[C@@H]1[C@@H](C(=O)O)[C@H]21 [Example 20-1] |
| 3550 nM | CC(C)(Cc1ccc2ccccc2c1)NC[C@@H](O)COc1ccc2c(c1)C1C(O2)C1C(=O)O (stereo partly drawn) [Example 22-1] |
| 2720 nM | CC(OC[C@H](O)CNC(C)(C)Cc1ccc2ccccc2c1)c1ccc2c(c1)C1C(O2)C1C(=O)O (stereo partly drawn) [Example 21-1] |
| 41 nM | Cc1cc(Cl)c([C@@H](C)OC[C@H](O)CNC(C)(C)Cc2ccc3c(c2)OCCO3)c2c1O[C@@H]1[C@@H](C(=O)O)[C@H]21 [Example 16-4] |

Source: patent US20160311791A1, “NOVEL TRICYCLIC CALCIUM SENSING RECEPTOR ANTOGONISTS FOR THE TREATMENT OF OSTEOPOSOSIS” (MERCK SHARP & DOHME CORP., priority 2013, published 2016)
